{"source": "ChEMBL document CHEMBL1151364", "about": "“19-Hydroxybaccatin III, 10-deacetylcephalomannine, and 10-deacetyltaxol: new antitumor taxanes from Taxus wallichiana” (1981)", "key": {"[1]": {"tested_on": "KB", "assay": "Cytotoxicity against human KB cells", "assay_type": "functional", "settings": "for EC50: Homo sapiens, KB, read-out: ED50 (the source's name)"}, "[2]": {"tested_on": "P388", "assay": "In vivo antitumor activity against mouse P388 cells at 0.26 to 4.3 mg/kg", "assay_type": "functional, organism-based"}, "[3]": {"tested_on": "P388", "assay": "In vivo antitumor activity against mouse P388 cells at 16 mg/kg relative to control", "assay_type": "functional"}, "[4]": {"tested_on": "P388", "assay": "In vivo antitumor activity against mouse P388 cells at 2.2 mg/kg relative to control", "assay_type": "functional"}}, "note": "Active and inactive are the calls of the source. The rule behind the calls is not given here.", "data": [{"smiles": "C/C=C(\\C)C(=O)N[C@@H](c1ccccc1)[C@@H](O)C(=O)O[C@H]1C[C@@]2(O)[C@@H](OC(=O)c3ccccc3)[C@@H]3[C@]4(OC(C)=O)CO[C@@H]4C[C@@H](O)[C@@]3(C)C(=O)[C@H](O)C(=C1C)C2(C)C", "values": [{"measurement": "EC50", "setting": "[1]", "value": 0.046, "unit": "µg/mL"}]}, {"smiles": "CC(=O)O[C@H]1C(=O)[C@@]2(CO)[C@H]([C@H](OC(=O)c3ccccc3)[C@]3(O)C[C@H](O)C(C)=C1C3(C)C)[C@]1(OC(C)=O)CO[C@@H]1C[C@@H]2O", "values": [{"measurement": "Activity", "setting": "[1]", "value": 2.2, "unit": "µg/mL"}, {"measurement": "Activity", "setting": "[2]", "value": "inactive"}]}, {"smiles": "C/C=C(\\C)C(=O)N[C@@H](c1ccccc1)[C@@H](O)C(=O)O[C@H]1C[C@@]2(O)[C@@H](OC(=O)c3ccccc3)[C@@H]3[C@]4(OC(C)=O)CO[C@@H]4C[C@H](O)[C@@]3(C)C(=O)[C@H](O)C(=C1C)C2(C)C", "values": [{"measurement": "EC50", "setting": "[1]", "value": 0.031, "unit": "µg/mL"}, {"measurement": "T/C", "setting": "[3]", "value": 130, "unit": "%"}]}, {"smiles": "CC(=O)O[C@H]1C(=O)[C@@]2(C)[C@H]([C@H](OC(=O)c3ccccc3)[C@]3(O)C[C@H](OC(=O)[C@H](O)[C@@H](NC(=O)c4ccccc4)c4ccccc4)C(C)=C1C3(C)C)[C@]1(OC(C)=O)CO[C@@H]1C[C@@H]2O", "note": "[PACLITAXEL]", "values": [{"measurement": "EC50", "setting": "[1]", "value": 0.0012, "unit": "µg/mL"}, {"measurement": "T/C", "setting": "[4]", "value": 152, "unit": "%"}]}, {"smiles": "C/C=C(\\C)C(=O)N[C@@H](c1ccccc1)[C@@H](O)C(=O)O[C@H]1C[C@@]2(O)[C@@H](OC(=O)c3ccccc3)[C@@H]3[C@]4(OC(C)=O)CO[C@@H]4C[C@H](O)[C@@]3(C)C(=O)[C@H](OC(C)=O)C(=C1C)C2(C)C", "note": "[CEPHALOMANNINE]", "values": [{"measurement": "EC50", "setting": "[1]", "value": 0.0038, "unit": "µg/mL"}, {"measurement": "T/C", "setting": "[4]", "value": 162, "unit": "%"}]}, {"smiles": "CC(=O)O[C@@]12CO[C@@H]1C[C@H](O)[C@@]1(C)C(=O)[C@H](O)C3=C(C)[C@@H](OC(=O)[C@H](O)[C@@H](NC(=O)c4ccccc4)c4ccccc4)C[C@@](O)([C@@H](OC(=O)c4ccccc4)[C@H]21)C3(C)C", "values": [{"measurement": "EC50", "setting": "[1]", "value": 0.027, "unit": "µg/mL"}, {"measurement": "T/C", "setting": "[3]", "value": 135, "unit": "%"}]}, {"smiles": "CC(=O)O[C@@]12CO[C@@H]1C[C@@H](O)[C@@]1(C)C(=O)[C@H](O)C3=C(C)[C@@H](OC(=O)[C@H](O)[C@@H](NC(=O)c4ccccc4)c4ccccc4)C[C@@](O)([C@@H](OC(=O)c4ccccc4)[C@H]21)C3(C)C", "values": [{"measurement": "EC50", "setting": "[1]", "value": 0.034, "unit": "µg/mL"}]}]}
